Earlier results in US20020004528A1, “Method for the treatment of insomnia” (priority 1998, published 2002).

Conditions: one study mentioned in U.S. Pat. No. 5,510,381 (use of gabapentin to treat mania)

1-(aminomethyl)-cyclohexane acetic acid [gabapentin]
effect on delta-wave (deep) sleep: enhance delta-wave (deep) sleep
